From paper PMC4805251, “Novel Antimicrobial Peptides EeCentrocins 1, 2 and EeStrongylocin 2 from the Edible Sea Urchin Echinus esculentus Have 6-Br-Trp Post-Translational Modifications” (PLoS ONE, 2016) come the findings set out here.

Assay type in all cases: cell-based
Data set [1] deals with Cladosporium sp. The note with it: 24 h. The protocol: (§1) The synthetic peptides (see section 2.11) were also screened for antifungal activity against Candida albicans (ATCC 10231), Saccharomyces cerevisiae, Rhodotorula sp., Aureobasidium pullulans and Cladosporium sp. The antifungal assay was performed as described previously. Briefly, fungal spores were dissolved in potato dextrose broth (Difco, Lawrence, KS, USA) to a concentration of 4 × 10^5 spores/ml. The spores (50 μl) were inoculated on 96-well Nunclon^TM microtiter plates containing the synthetic peptides (50 μl) dissolved in MQ-H2O. […] MIC was defined as the lowest concentration of peptide giving no visible fungal growth. The negative (growth) control contained medium and fungal solution.
(§2) ACN-phases and SPE eluates were tested with two-fold serial dilutions ranging from 5.0 to 0.005 mg/ml (5.0, 2.5, 1.25, 0.63, 0.31, 0.16, 0.08, 0.04, 0.02, 0.01, 0.005 mg/ml) whereas HPLC-fractions were tested undiluted for antibacterial activity. Pure, native peptides and synthetic peptides (described in section 2.11) were tested for antimicrobial activity in concentrations ranging from 100 to 0.1 μM in two-fold serial dilutions (100, 50, 25, 12.5, 6.25, 3.13, 1.56, 0.78, 0.39, 0.20, 0.10 μM). Antimicrobial assays involving natural peptides (i.e. fractionated natural material) were run only once due to limited quantities, whereas all other assays were run in triplicates.

Data set [2] deals with Candida albicans (ATCC 10231). The note with it: ATCC 10231, 24 h. The protocol:
as §1, §2

Data set [3] concerns Saccharomyces cerevisiae. The note with it: 24 h. The protocol: as §1, §2
The subject of data set [4] is Aureobasidium pullulans. The conditions noted are these: 24 h. The protocol:
as §1, §2

In data set [5] the test system is Rhodotorula sp. The conditions noted are these: potato dextrose broth, 24 h at room temperature, visual, no visible fungal growth; value of Table 2; triplicates. The method, then:
as §1, §2

In data set [6] the test system is Escherichia coli #1 (ATCC 25922).
Text: (§3) Organic phase extract, SPE eluates and HPLC-fractions were screened for antibacterial activity against two strains of Gram-positive and two strains of Gram-negative bacteria; Corynebacterium glutamicum (ATCC 13032), Staphylococcus aureus (ATCC 9144), Pseudomonas aeruginosa #1 (ATCC 27853) and Escherichia coli #1 (ATCC 25922). For extended antimicrobial bioactivity screening, the following bacterial strains were used, three strains of Gram-positive bacteria; S. epidermidis #1 (5179-R1) kindly provided by Holger Rohde, S. epidermidis #2, RP62A (ATCC 35984) and Bacillus subtilis (ATCC 23857) in addition to the Gram-negative P. aeruginosa #2, PA 01 (ATCC 15692, DSM 19880) and E. coli #2, NR 698 (MC4100/ptD4213).
(§4) Cultures stored at -80°C were smeared onto agar plates and cultured for 24 h at 35°C. One colony of each bacterial strain was transferred to 5 ml liquid Müller-Hinton (MH, Difco, Lawrence, KS, USA) medium in a glass tube and left shaking at room temperature overnight at 600 rpm. The cultures of actively growing bacteria (20 μl) were further inoculated in 5 ml MH medium and left shaking for 2 h at room temperature. The antibacterial assays were performed as previously described by. Briefly, the bacterial cultures were diluted with medium to 1.3–1.5 × 10^4 bacteria/ml final concentrations and an aliquot of 50 μl was added to each well in 96-well Nunclon^TM microtiter plates (Nagle Nunc Int., Denmark) preloaded with 50 μl test sample solutions, i.e. extracts, eluates or peptides.
(§5) The test plates were incubated for 24 h at 35°C with optical density (OD595) recorded every hour using an Envision 2103 multilabel reader, controlled by the Wallac Envision manager (PerkinElmer, CT, USA). Antibacterial activity was defined as a sample showing >90% inhibition (as measured by optical density) compared to the negative (growth) controls, consisting of bacteria and water. Oxytetracycline (20 μM) served as a positive (inhibition) control. The minimum inhibitory concentration (MIC) was defined as the lowest concentration of a sample displaying >90% inhibition.
as §2

The subject of data set [7] is Bacillus subtilis (ATCC 23857). The conditions noted are these: ATCC 23857, 24 h.
Text: as §3, §4, §5, §2

Data set [8] concerns S. epidermidis #1 (5179-R1). The conditions noted are these: #1 (5179-R1, 24 h).
Text: as §3, §4, §5, §2

Data set [9] concerns E. coli #2, NR 698 (MC4100/ptD4213). The conditions noted are these: MH medium, 24 h at 35°C, OD595, >90% inhibition; value of Table 2; triplicates.
Text: as §3, §4, §5, §2

The subject of data set [10] is S. epidermidis #2, RP62A (ATCC 35984). The note with it: ATCC 35984, 24 h.
Text: as §3, §4, §5, §2

Data set [11] deals with P. aeruginosa #2, PA 01 (ATCC 15692, DSM 19880). The conditions noted are these: ATCC 15692, 24 h.
Text: as §3, §4, §5, §2

Data set [12] deals with Staphylococcus aureus (ATCC 9144).
Text: as §3, §4, §5, §2

For data set [13], the system named is Corynebacterium glutamicum (ATCC 13032).
Text: as §3, §4, §5, §2

Data set [14] deals with Pseudomonas aeruginosa #1 (ATCC 27853).
Text: as §3, §4, §5, §2

Data set [15] concerns human red blood cells. Put plainly: Haemolytic activity assay. The method, then:
Synthesised peptide analogues of EeCentrocin 1 and 2 were screened for eukaryotic cell-toxicity with a haemolytic activity assay using human red blood cells as described previously. The assay was performed on 96-well U-shaped microtiter plates (Nagle Nunc) with 50 μl peptide sample, 40 μl phosphate-buffered saline (PBS) and 10 μl red blood cells. The final peptide concentrations ranged from 100 to 0.1 μM in two-fold serial dilutions. After one hour of incubation at 37°C in a shaker, the plate was centrifuged at 200 g for 5 min and the supernatants (60 μl) were carefully transferred to a new flat-bottomed polycarbonate microtiter plate (Nagle Nunc) and absorbance at 550 nm was measured on a Synergy H1 multimode reader (BioTek, VT, USA). Cell suspension added 0.05% Triton X-100 (Sigma-Aldrich, MO, USA) in PBS served as positive (100% haemolysis) control and cell suspension added PBS served as negative (0% haemolysis) control. The percent haemolysis was calculated using the formula [(Asample-Abaseline)/(Atriton-Abaseline)]×100. The experiment was performed in duplicates.

Where [16] appears, read: MH medium, 24 h at 35°C, OD595, >90% inhibition, value of Table 2, native peptides run once, synthetic in triplicates.
Where [17] appears, read: MH medium, 24 h at 35°C, OD595, lowest concentration with >90% inhibition, value of Table 2, native peptides run once, synthetic in triplicates.

Read-outs that look alike come from different tables or passages of the source. Bridge positions count the residues as written; N and C are the ends. Square brackets hold non-standard residues; d marks the D form. Ends that are not written are not given here. I, II: the chains in the order shown. Trp(6-Br) = N[C@@H](Cc1c[nH]c2cc(Br)ccc12)C(=O)O Where only a bound is given, the exact number is not on record here.

Consider `CC[C@H](C)[C@H](NC(=O)[C@@H](N)CC(=O)O)C(=O)NCC(=O)N[C@@H](CCCCN)C(=O)N[C@@H](Cc1ccc(O)cc1)C(=O)N[C@@H](CS)C(=O)NCC(=O)N[C@@H](Cc1ccc(O)cc1)C(=O)N[C@@H](C)C(=O)N[C@@H](Cc1c[nH]cn1)C(=O)N[C@@H](C)C(=O)N[C@@H](CC(C)C)C(=O)N[C@@H](CC(N)=O)C(=O)O` (stereo in doubt) [EeCentrocin 1 LC], for which the “MIC Cladosporium sp.” value in data set [1] was more than 100 µM. Besides, in data set [2], the “MIC C. albicans” value was more than 100 µM. The “MIC S. cerevisiae” value in data set [3] was more than 100 µM. Moreover, the “MIC A. pullulans” value in [4] is more than 100 µM. In addition, in data set [5], the “MIC Rhodotorula sp.” value was more than 100 µM. Also, in [6] (ATCC 25922, 24 h), the “MIC E. coli #1” value was more than 100 µM. Further, the “MIC B. subtilis” value in data set [7] was more than 100 µM. In addition, in [8], the “MIC S. epidermidis #1” value was more than 100 µM. Moreover, the “MIC E. coli #2” value in [9] is more than 100 µM. For the same compound, the “MIC S. epidermidis #2” value in [10] was more than 100 µM. The “MIC P. aeruginosa #2” value in data set [11] is more than 100 µM. For the same compound, the “MIC S. aureus” value in data set [12] (ATCC 9144, 24 h) is more than 100 µM. The “MIC C. glutamicum” value in data set [13] (ATCC 13032, 24 h) is more than 100 µM. Besides, the “MIC P. aeruginosa #1” value in [14] (ATCC 27853, 24 h) was more than 100 µM.
Consider “I: G[Trp(6-Br)][Trp(6-Br)]RRTVDKVRNAGRKVAGFASKACGALGH-OH / II: DIGKYCGYAHALN-NH2 (disulfide I:25-II:6) [EeCentrocin 1]”, for which the “MIC E. coli #1” value in [6] (ATCC 25922, 24 h) turned out to be 0.1 µM. Further, in [12] (ATCC 9144, 24 h), the “MIC S. aureus” value worked out at 0.78 µM. Further, in [13] (ATCC 13032, 24 h), the “MIC C. glutamicum” value was 0.78 µM. The “MIC P. aeruginosa #1” value in data set [14] (ATCC 27853, 24 h) is 0.78 µM.
As to “Triton X-100 [Lysis (0.05% Triton X-100), reference compound]”, the “Absorbance at 550nm, lysis control” value in [15] is reported as 0.24.
Take “XNPFKKIAHRXCYPKNE (bicyclic or more) [EeStrongylocin 2, cysteine-rich antimicrobial peptide from E. esculentus with 3 disulphide bonds and a 6-Br-Trp]”: the “MIC E. coli #1” value in data set [6] (setting [16]) amounted to 0.78 µM. Also, the “MIC S. aureus” value in [12] (setting [17]) came out at 3.13 µM. For the same compound, the “MIC C. glutamicum” value in data set [13] (setting [17]) was determined as 1.56 µM. Besides, the “MIC P. aeruginosa #1” value in [14] (setting [16]) came to 1.56 µM.
